Measurements as given in PubChem BioAssay AID2060346 (Molecular Pharmacology Branch, DTP, NCI, 2025).
“And” between values parts separate entries of the source, which are not always exact repeats. Equal entries are not always repeated.

System: CN0375-F725-PDC multi-cell spheroids, viability
Assay: Anticancer human tumor CN0375-F725-PDC patient-derived colon carcinoma cell line growth inhibition [TAK]
Conditions: for viability, T/C: stronger effect = lower value
From the text: Combinatorial screen of targeted agents with TAK-243 and ipatasertib in multi-cell type tumor spheroids
A high-throughput screen of multi-cell type tumor spheroids was designed to identify active combinations of targeted small molecules and TAK-243 or ipatasertib. Complex spheroids include a stromal component modeled by human endothelial cells (HUVEC) and fibroblasts modeled by human mesenchymal stem cells (MSCs). The concentration ranges selected for each drug and investigational agent were based upon clinically achievable concentrations if the clinical Cmax of the agent was known.
Compounds. The drugs and investigational agents: TAK-243 (785004), ipatasertib (767898), everolimus (733504), selumetinib (741078), bortezomib (756655), trametinib (758246), ixazomib (758254), vemurafenib (761431), dabrafenib (764134), sapanisertib (764658), alpelisib (765974), and copanlisib (816437), were obtained from the National Cancer Institute (NCI) Developmental Therapeutics Program Chemical Repository. The FDA-approved anticancer drug set is available from the NCI Developmental Therapeutics Program. […] The stock solutions were prepared in dimethyl sulfoxide (DMSO, Sigma-Aldrich, St. Louis, MO, cat. D2650) at 800-fold the tested concentration and stored at -70 degrees C prior to their use. All drugs and investigational agents were tested over a range starting from a high concentration at or near the clinical Cmax and decreasing in half-log increments. If the clinical Cmax for an agent had not been determined, the highest concentration tested was 10 microM.
NCI60 Cell Culture. NCI60 cell lines were obtained from the NCI Developmental Therapeutics Program Tumor Repository. For each lot of cells, the Repository performed Applied Biosystems AmpFLSTR Identifiler testing with PCR amplification to confirm consistency with the published Identifier STR profile for each cell line. Cells were kept in continuous culture for no more than 20 passages. The optimal seeding densities for each of the cell lines at each time point assessed were determined prior to performing the concentration response studies. Briefly, the NCI60 human tumor lines were grown as monolayers in RPMI 1640 medium supplemented with 10% FBS and 2 mmol/L L-glutamine.
An additional 2 lines were from the NCI60 cell line panel including melanomas, MALME-3M and SK-MEL-2. Pooled donor human umbilical vein endothelial cells (HUVEC, Lonza, cat. CC-2519) and human mesenchymal stem cells (hMSC, Lonza, cat. PT-2501) were purchased from Lonza (Walkersville, MD).
PDMR cell lines were grown in complete medium (DC medium): Dulbecco's modified Eagle's medium (DMEM)/F12 supplemented with 5% fetal bovine serum (FBS), 2 mM L-glutamine, 100 U/mL penicillin and 100 µg/ml streptomycin, 0.4 µg/ml hydrocortisone, 10 ng/ml epidermal growth factor (EGF) recombinant human protein, 24 µg/mL adenine, and 0.1 mg/mL primocin. During culture from frozen stock vials, PDMR cells were cultured in the same medium containing 10 µM Y-27632 (see Table 3). The PDCs were cultured in complete DMEM/F12 media without 10 microM Y-27632 dihydrochloride for at least two passages prior to the screen. The pooled donor HUVEC and hMSC were cultured in endothelial cell growth medium 2 (PromoCell, Heidelberg, Germany, cat. C-22011) and mesenchymal stem cell growth medium 2 (PromoCell, cat. C-28009), respectively. For all experiments, HUVEC and hMSC were used at passages </=5.
For the pre-screen, cell seeding densities were determined from a titration spanning the range from 5,000 to 313 cells per well. The mct-spheroids including 60% malignant cells, 25% HUVEC and 15% MSC dispensed as a mixture into U-bottom Ultra-Low Attachment 384-well plates (Corning, NY)
High-throughput Drug Combination Screening.
Prior to their inoculation into 384-well plates, malignant cells, HUVEC, and hMSC were removed from T flasks using TrypLE express (Thermo Fisher Scientific, cat. 12605036) and harvested by centrifugation for 5 min at 233 x g. […]
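Further: spheroids exposed to drugs for seven days.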
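Wherever viability, T/C is given: 100% = DMSO vehicle control wells.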

SMILES: CC(=O)Nc1cccc(-n2c(=O)n(C3CC3)c(=O)c3c(Nc4ccc(I)cc4F)n(C)c(=O)c(C)c32)c1
- viability, T/C (compound 94.9 pM): 106% and 100%
- viability, T/C (compound 0.0003 µM): 96.5% and 91.6%
- viability, T/C (compound 0.000949 µM): 78.1% and 77.9%
- viability, T/C (compound 0.003 µM): 67.4% and 64.9%
- viability, T/C (compound 0.00949 µM): 52.9% and 52.8%
- viability, T/C (compound 0.03 µM): 35.6% and 38.6%
- IC50 (curve of compound): 10.6 nM and 11.2 nM

SMILES: CC(C)(C)c1nc(-c2cccc(NS(=O)(=O)c3c(F)cccc3F)c2F)c(-c2ccnc(N)n2)s1
- viability, T/C (compound 0.0316 µM): 126% and 115%
- viability, T/C (compound 0.1 µM): 130% and 129%
- viability, T/C (compound 0.316 µM): 126% and 133%
- viability, T/C (compound 1 µM): 112% and 127%
- viability, T/C (compound 3.16 µM): 104% and 119%
- viability, T/C (compound 10 µM): 110% and 107%
- IC50 (curve of compound): > 10000 nM

SMILES: CC(C)CC(NC(=O)C(Cc1ccccc1)NC(=O)c1cnccn1)B(O)O (configuration not stated)
- viability, T/C (compound 31.6 pM): 112% and 110%
- viability, T/C (compound 0.0001 µM): 98.7% and 113%
- viability, T/C (compound 0.000316 µM): 104% and 103%
- viability, T/C (compound 0.001 µM): 109% and 105%
- viability, T/C (compound 0.00316 µM): 103% and 106%
- viability, T/C (compound 0.01 µM): 34.9% and 35.3%
- IC50 (curve of compound): 7.76 nM and 7.87 nM

SMILES: CC(C)CC(NC(=O)CNC(=O)c1cc(Cl)ccc1Cl)B1OC(=O)CC(CC(=O)O)(C(=O)O)O1 (configuration not stated)
- viability, T/C (compound 0.000316 µM): 113% and 106%
- viability, T/C (compound 0.001 µM): 112% and 104%
- viability, T/C (compound 0.00316 µM): 103% and 102%
- viability, T/C (compound 0.01 µM): 111% and 109%
- viability, T/C (compound 0.0316 µM): 78.3% and 75.7%
- viability, T/C (compound 0.1 µM): 23.4% and 22.6%
- IC50 (curve of compound): 57.2 nM and 55.2 nM

SMILES: CC(C)NCC(C(=O)N1CCN(c2ncnc3c2C(C)CC3O)CC1)c1ccc(Cl)cc1 (configuration not stated)
- viability, T/C (compound 0.3 µM): 97.1% [middle of 10 runs]
- viability, T/C (compound 0.949 µM): 93.7% [middle of 10 runs]
- viability, T/C (compound 3 µM): 91.4% [middle of 10 runs]
- viability, T/C (compound 9.49 µM): 84.7% [middle of 10 runs]
- viability, T/C (compound 30 µM): 83.7% [middle of 10 runs]
- IC50 (compound alone, run of 02/28/2020): > 30000 nM
- IC50 (compound alone, run of 03/19/2020): > 30000 nM

SMILES: CC(C)n1nc(-c2ccc3oc(N)nc3c2)c2c(N)ncnc21
- viability, T/C (compound 0.000316 µM): 109% and 106%
- viability, T/C (compound 0.001 µM): 105% and 101%
- viability, T/C (compound 0.00316 µM): 91.7% and 93.4%
- viability, T/C (compound 0.01 µM): 85.5% and 83.8%
- viability, T/C (compound 0.0316 µM): 73.1% and 76.7%
- viability, T/C (compound 0.1 µM): 58.9% and 61.4%
- IC50 (curve of compound): > 100 nM

SMILES: CCCS(=O)(=O)Nc1ccc(F)c(C(=O)c2c[nH]c3ncc(-c4ccc(Cl)cc4)cc23)c1F
- viability, T/C (compound 0.316 µM): 113% and 115%
- viability, T/C (compound 1 µM): 122%
- viability, T/C (compound 3.16 µM): 114% and 109%
- viability, T/C (compound 10 µM): 75.1% and 65.5%
- viability, T/C (compound 31.6 µM): 118% and 111%
- viability, T/C (compound 100 µM): 101% and 111%
- IC50 (curve of compound): > 100000 nM

SMILES: COC1CC2CCC(C)C(O)(O2)C(=O)C(=O)N2CCCCC2C(=O)OC(C(C)CC2CCC(OCCO)C(OC)C2)CC(=O)C(C)C=C(C)C(O)C(OC)C(=O)C(C)CC(C)C=CC=CC=C1C (configuration not stated)
- viability, T/C (compound 0.000316 µM): 108% and 127%
- viability, T/C (compound 0.001 µM): 103% and 118%
- viability, T/C (compound 0.00316 µM): 90.9% and 96.7%
- viability, T/C (compound 0.01 µM): 88.1% and 93.2%
- viability, T/C (compound 0.0316 µM): 84.9% and 77.9%
- viability, T/C (compound 0.1 µM): 83.9% and 82.5%
- IC50 (curve of compound): > 100 nM

SMILES: COc1c(OCCCN2CCOCC2)ccc2c3n(c(=NC(=O)c4cnc(N)nc4)nc12)CCN3
- viability, T/C (compound 0.00316 µM): 96.6% and 99.3%
- viability, T/C (compound 0.01 µM): 89.4% and 83.8%
- viability, T/C (compound 0.0316 µM): 78.5% and 68.5%
- viability, T/C (compound 0.1 µM): 63.8% and 55.3%
- viability, T/C (compound 0.316 µM): 42.5% and 39.9%
- viability, T/C (compound 1 µM): 34.6% and 29.2%
- IC50 (curve of compound): 220 nM and 144 nM

SMILES: Cc1nc(NC(=O)N2CCCC2C(N)=O)sc1-c1ccnc(C(C)(C)C(F)(F)F)c1 (configuration not stated)
- viability, T/C (compound 0.0316 µM): 102% and 105%
- viability, T/C (compound 0.1 µM): 93.8% and 98.5%
- viability, T/C (compound 0.316 µM): 92.2% and 85.6%
- viability, T/C (compound 1 µM): 85.7% and 77.4%
- viability, T/C (compound 3.16 µM): 68.3% and 65.6%
- viability, T/C (compound 10 µM): 57.7% and 47.6%
- IC50 (curve of compound): > 10000 nM and 9170 nM

SMILES: Cn1cnc2c(F)c(Nc3ccc(Br)cc3Cl)c(C(=O)NOCCO)cc21
- viability, T/C (compound 0.00949 µM): 89.7% and 95.5%
- viability, T/C (compound 0.03 µM): 79.8% and 82.5%
- viability, T/C (compound 0.0949 µM): 64.8% and 61.1%
- viability, T/C (compound 0.3 µM): 55.1% and 49.1%
- viability, T/C (compound 0.949 µM): 40.8% and 41.4%
- viability, T/C (compound 3 µM): 33.3% and 34.5%
- IC50 (curve of compound): 420 nM and 267 nM
